Results taken from patent publication US7659400B2, “Radiolabelled benzamide analogues, their synthesis and use in diagnostic imaging” (Washington University, priority 2003, dated 2010).
Substitutions are numbered along the chain they refer to. Several values for one entry are separate records, joined by “and”; a condition that tells them apart may be missing. Identical values can stand only once.

Tests used:
σ1 receptors = σ1 receptors (Cavia porcellus, UniProt Q60492)
Protocol: In these assays, the novel sigma ligands were dissolved in N,N-dimethylformamide (DMF), DMSO or ethanol, and then diluted in 50 mM Tris-HCl buffer containing 150 mM NaCl and 100 mM EDTA at pH 7.4 prior to performing the σ1 and σ2 receptor binding assays. […] The samples were harvested and filtered rapidly through a 96-well fiber glass filter plate (millipore, Billerica, Mass.) that had been presoaked with 100 μL of 50 mM Tris-HCl buffer at pH 8.0 for 1 h.
The Ki values were determine from Scatchard plots.

σ2 receptors [1] = target: T1, σ2 receptors (Rattus norvegicus, UniProt Q5U3Y7); experiment: σ2 receptor binding assay, [^3H]DTG in the presence of (+)-pentazocine, rat liver membrane homogenates
T1 construct: conducted using rat liver membrane homogenates; from tissue; host or cells: rat liver membrane homogenates
T1 sequence (Q5U3Y7 1-176): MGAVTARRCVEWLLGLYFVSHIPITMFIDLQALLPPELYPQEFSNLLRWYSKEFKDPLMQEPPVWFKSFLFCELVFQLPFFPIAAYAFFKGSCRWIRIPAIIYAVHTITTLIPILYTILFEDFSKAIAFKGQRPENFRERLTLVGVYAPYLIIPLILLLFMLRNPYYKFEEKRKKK
Protocol: The incubation time was 120 min at room temperature. […] All other procedures were identical to those described for the σ1 receptor binding assay above.

EMT-6 tumors = experiment: Biodistribution of 18F-labeled ligands in mice bearing EMT-6 tumors; type: in vivo, female Balb/c mice
Protocol: This example illustrates in vivo evaluation of compounds of the present teachings. All animal experiments were conducted in compliance with the Guidelines for the Care and Use of Research Animals established by Washington University's Animal Studies Committee. EMT-6 mouse mammary adenocarcinoma cells (5×10^5 cells in 100 uL of phosphate-buffered saline) were implanted subcutaneously in the scapular region of female Balb/c mice (˜2-month old and 17-22 g; Charles River Laboratories). […] Groups of at least 4 mice were used for each time point. […] After counting, the percentage of the injected dose per gram of tissue (%ID/g) was calculated. The tumor/organ ratios were calculated by dividing the %ID/g of the tumor by the %ID/g of each organ.

σ2 receptors [2] = target: T2, σ2 receptors (Mus musculus, UniProt Q8VD00); experiment: Blocking study: co-injection of 1 mg/kg YUN-143 in EMT-6 tumor-bearing mice; type: in vivo; details: 1 mg/kg YUN-143, 1 h post-injection
T2 construct: from tissue; host or cells: EMT-6 tumours in female Balb/c mice, in vivo
T2 sequence (Q8VD00 1-176): T1 sequence (Q5U3Y7 1-176) with V4L, T5A, M26L, L33V, F71L, V105A, I118L, I127V, N136S, F169Y
Protocol: These blocking studies in tumor-bearing mice were conducted by co-injecting 1 mg/kg of cold N-(4-fluorobenzyl) piperidinyl-4-(3-bromophenyl)acetamide (YUN-143) with [^18F]3c or [^18F]3f.

Chain of σ1 receptors (Q60492 whole entry): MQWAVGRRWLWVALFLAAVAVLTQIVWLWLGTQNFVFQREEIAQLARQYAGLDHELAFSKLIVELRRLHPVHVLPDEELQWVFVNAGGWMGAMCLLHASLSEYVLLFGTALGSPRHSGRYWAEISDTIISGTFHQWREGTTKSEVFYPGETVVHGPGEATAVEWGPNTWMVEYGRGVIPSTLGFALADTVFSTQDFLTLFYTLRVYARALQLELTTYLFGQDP

5-bromo-N-[4-(6,7-dimethoxy-3,4-dihydro-1H-isoquinolin-2-yl)-butyl]-2-(2-fluoro-ethoxy)-3-methoxy-benzamide [compound 3b]
Ki (σ1 receptors): 15.3 µM
Ki (σ2 receptors [1]; rat liver membranes, [^3H]DTG, mean ± SEM): 0.386 ± 0.093 µM
σ1:σ2 Ratio (σ2 receptors [1]; ratio of Ki values): 40

COc1cc2c(cc1OC)CN(CCCCNC(=O)c1cc(C)ccc1OCC[18F])CC2 [[^18F]3c]
Biodistribution: blood (EMT-6 tumors; 5 min after i.v. injection): 2.49 ± 0.49 %ID/g
Biodistribution: bone (EMT-6 tumors; 5 min after i.v. injection): 2.49 ± 0.19 %ID/g
Biodistribution: brain (EMT-6 tumors; 5 min after i.v. injection): 0.76 ± 0.06 %ID/g
Biodistribution: fat (EMT-6 tumors; 5 min after i.v. injection): 1.95 ± 0.33 %ID/g
Biodistribution: heart (EMT-6 tumors; 5 min after i.v. injection): 3.73 ± 0.15 %ID/g
Biodistribution: kidney (EMT-6 tumors; 5 min after i.v. injection): 29.18 ± 1.92 %ID/g
Biodistribution: liver (EMT-6 tumors; 5 min after i.v. injection): 23.33 ± 4.22 %ID/g
Biodistribution: lung (EMT-6 tumors; 5 min after i.v. injection): 10.26 ± 0.71 %ID/g
Biodistribution: muscle (EMT-6 tumors; 5 min after i.v. injection): 1.86 ± 0.08 %ID/g
Biodistribution: tumor (tumor uptake) (EMT-6 tumors; 5 min after i.v. injection): 3.67 ± 0.45 %ID/g
Biodistribution: blood (EMT-6 tumors; 30 min after i.v. injection): 1.16 ± 0.10 %ID/g
Biodistribution: bone (EMT-6 tumors; 30 min after i.v. injection): 0.96 ± 0.15 %ID/g
Biodistribution: brain (EMT-6 tumors; 30 min after i.v. injection): 0.27 ± 0.05 %ID/g
Biodistribution: fat (EMT-6 tumors; 30 min after i.v. injection): 0.59 ± 0.13 %ID/g
Biodistribution: heart (EMT-6 tumors; 30 min after i.v. injection): 1.15 ± 0.06 %ID/g
Biodistribution: kidney (EMT-6 tumors; 30 min after i.v. injection): 6.86 ± 0.45 %ID/g
Biodistribution: liver (EMT-6 tumors; 30 min after i.v. injection): 10.51 ± 0.87 %ID/g
Biodistribution: lung (EMT-6 tumors; 30 min after i.v. injection): 2.36 ± 0.19 %ID/g
Biodistribution: muscle (EMT-6 tumors; 30 min after i.v. injection): 0.70 ± 0.19 %ID/g
Biodistribution: tumor (tumor uptake) (EMT-6 tumors; 30 min after i.v. injection): 2.54 ± 0.27 %ID/g
Biodistribution: tumor (tumor uptake) (EMT-6 tumors; 60 min (1 h) after i.v. injection): 1.14 ± 0.10 %ID/g
Biodistribution: blood (EMT-6 tumors; 60 min after i.v. injection): 0.56 ± 0.08 %ID/g
Biodistribution: bone (EMT-6 tumors; 60 min after i.v. injection): 0.55 ± 0.07 %ID/g
Biodistribution: brain (EMT-6 tumors; 60 min after i.v. injection): 0.18 ± 0.03 %ID/g
Biodistribution: fat (EMT-6 tumors; 60 min after i.v. injection): 0.22 ± 0.04 %ID/g
Biodistribution: heart (EMT-6 tumors; 60 min after i.v. injection): 0.55 ± 0.07 %ID/g
Biodistribution: kidney (EMT-6 tumors; 60 min after i.v. injection): 2.51 ± 0.51 %ID/g
Biodistribution: liver (EMT-6 tumors; 60 min after i.v. injection): 4.14 ± 0.55 %ID/g
Biodistribution: lung (EMT-6 tumors; 60 min after i.v. injection): 0.88 ± 0.12 %ID/g
Biodistribution: muscle (EMT-6 tumors; 60 min after i.v. injection): 0.34 ± 0.05 %ID/g
Biodistribution: tumor (tumor uptake) (EMT-6 tumors; 120 min (2 h) after i.v. injection): 0.64 %ID/g and 0.64 ± 0.10 %ID/g
Biodistribution: blood (EMT-6 tumors; 120 min after i.v. injection): 0.35 ± 0.05 %ID/g
Biodistribution: bone (EMT-6 tumors; 120 min after i.v. injection): 0.45 ± 0.11 %ID/g
Biodistribution: brain (EMT-6 tumors; 120 min after i.v. injection): 0.12 ± 0.02 %ID/g
Biodistribution: fat (EMT-6 tumors; 120 min after i.v. injection): 0.08 ± 0.02 %ID/g
Biodistribution: heart (EMT-6 tumors; 120 min after i.v. injection): 0.27 ± 0.04 %ID/g
Biodistribution: kidney (EMT-6 tumors; 120 min after i.v. injection): 0.87 ± 0.13 %ID/g
Biodistribution: liver (EMT-6 tumors; 120 min after i.v. injection): 2.05 ± 0.43 %ID/g
Biodistribution: lung (EMT-6 tumors; 120 min after i.v. injection): 0.43 ± 0.07 %ID/g
Biodistribution: muscle (EMT-6 tumors; 120 min after i.v. injection): 0.24 ± 0.08 %ID/g
tumor:fat ratio (EMT-6 tumors; 2 h after i.v. injection): ~8
clearance from the blood (in words) (EMT-6 tumors; mouse, in vivo): rapid clearance from the blood
decrease in the tumor:fat ratio on co-injection of YUN-143 (σ2 receptors [2]): ~50%
decrease in the tumor:muscle ratio on co-injection of YUN-143 (σ2 receptors [2]): ~50%
